ChEMBL document CHEMBL5053508, “Optimization of Beclin 1-Targeting Stapled Peptides by Staple Scanning Leads to Enhanced Antiproliferative Potency in Cancer Cells” (J Med Chem, 2021)
Active and inactive are the calls of the source. The calls are words filed in the database; no cut-off is given here.

Tests used:
SK-BR-3 [1] = test: Induction of apoptosis in human SK-BR-3 cells assessed as live cells at 5 uM measured after 24 hrs by annexin V-FITC/PI staining based flow cytometry analysis (Rvb= 90.6%); format: functional
HEK293T [2] = test: Induction of FLAG tagged Beclin 1- Atg14L interaction in HEK293T cells assessed as increase in endogenous beclin 1 pull down at 10 to 20 uM by coimmunoprecipitation assay; format: cell-based; conditions: Homo sapiens, dose 10-20 µM
SK-BR-3 [3] = test: Antiproliferative activity against human SK-BR-3 cells assessed as reduction in cell growth incubated for 5 days by trypan blue exclusion assay; format: functional, cell-based; conditions: time 5.0 day
[4] = molecular target: Receptor tyrosine-protein kinase erbB-2 (Homo sapiens) (UniProt P04626); test: Induction of endolysosomal trafficking of HER2 in human SK-BR-3 cells assessed as EGF-induced degradation of HER2 at 2 uM measured after 24 hrs post-EGF stimulation by western blot analysis relative to control; format: cell-based
[5] = molecular target: Receptor tyrosine-protein kinase erbB-2 (Homo sapiens) (UniProt P04626); test: Induction of endolysosomal trafficking of HER2 in human SK-BR-3 cells assessed as EGF-induced degradation of HER2 at 2 uM measured after 15 hrs post-EGF stimulation by western blot analysis relative to control; format: cell-based
SK-BR-3 [6] = test: Antiproliferative activity against human SK-BR-3 cells assessed as reduction of cell growth measured after 24 hrs by trypan blue exclusion assay; conditions: SK-BR-3, 24 h
SK-BR-3 [7] = test: Induction of apoptosis […] in human SK-BR-3 cells assessed as late apoptotic cells at 5 uM incubated for 24 hrs by flow cytometry with Annexin V-FITC/propidium iodide staining based flow cytometry analysis (Rvb= 2.2%); format: functional
HEK-293T [8] = test: Induction of autophagy in human HEK293T cells assessed as increase in p62 protein level at 10 to 20 uM in presence of chloroquine measured after 3 hrs by western blot analysis; format: functional, cell-based; conditions: dose 10-20 µM
SK-BR-3 [9] = test: Induction of apoptosis in human SK-BR-3 cells assessed as dead cells at 10 uM measured after 24 hrs by annexin V-FITC/PI staining based flow cytometry analysis (Rvb= 5.0%); format: functional
HEK-293T [10] = test: Induction of autophagy in HEK293T cells assessed as increase in LC3-II protein level at 10 to 20 uM incubated for 3 hrs by western blot analysis; format: functional, cell-based; conditions: Homo sapiens, dose 10-20 µM
SK-BR-3 [11] = test: Induction of apoptosis in human SK-BR-3 cells assessed as increase in cleaved PARP level at 10 uM incubated for 24 hrs by western blot analysis; format: functional, cell-based
HEK-293T [12] = test: Induction of autophagy in human HEK293T cells assessed as increase in p62 protein level at 10 to 20 uM measured after 3 hrs by western blot analysis; format: functional, cell-based; conditions: dose 10-20 µM
SK-BR-3 [13] = test: Induction of apoptosis in human SK-BR-3 cells assessed as increase in cleaved caspase-3 level at 10 uM incubated for 24 hrs by western blot analysis; format: functional, cell-based
SK-BR-3 [14] = test: Induction of apoptosis in human SK-BR-3 cells assessed as early apoptotic cells at 10 uM measured after 24 hrs by annexin V-FITC/PI staining based flow cytometry analysis (Rvb= 2.2%); format: functional
SK-BR-3 [15] = test: Induction of apoptosis in human SK-BR-3 cells assessed as dead cells at 5 uM measured after 24 hrs by annexin V-FITC/PI staining based flow cytometry analysis (Rvb= 5.0%); format: functional
SK-BR-3 [16] = test: Induction of apoptosis in human SK-BR-3 cells assessed as increase in cell death at 10 uM in presence of Z-VAD-FMK measured after 24 hrs by trypan blue exclusion assay; format: functional, cell-based
SK-BR-3 [17] = test: Induction of apoptosis in human SK-BR-3 cells assessed as live cells at 10 uM measured after 24 hrs by annexin V-FITC/PI staining based flow cytometry analysis (Rvb= 90.6%); format: functional
SK-BR-3 [18] = test: Induction of apoptosis in human SK-BR-3 cells assessed as early apoptotic cells at 5 uM measured after 24 hrs by annexin V-FITC/PI staining based flow cytometry analysis (Rvb= 2.2%); format: functional
SK-BR-3 [19] = test: Induction of apoptosis in human SK-BR-3 cells assessed as late apoptotic cells at 10 uM incubated for 24 hrs by flow cytometry with Annexin V-FITC/propidium iodide staining based flow cytometry assay (Rvb= 2.2%); format: functional
HEK-293T [20] = test: Cytotoxicity against HEK293T cells assessed as reduction in cell viability at 10 to 20 uM measured after 24 hrs by trypan blue exclusion assay; format: cell-based; conditions: human, dose 10-20 µM
Beclin-1 [21] = molecular target: T1, Beclin-1 (Homo sapiens, UniProt Q14457); test: Inhibition of FLAG-tagged Beclin 1 self-association in HEK293T cells cotransfected with GFP assessed as reduction in beclin 1- GFP pull down by FLAG-beclin 1 by coimmunoprecipitation assay; format: cell-based
HEK-293T [22] = test: Induction of autophagy in human HEK293T cells assessed as increase in LC3-II protein level at 10 to 20 uM in presence of chloroquine measured after 3 hrs by western blot analysis; format: functional, cell-based; conditions: dose 10-20 µM
HEK293T [23] = test: Induction of FLAG tagged Beclin 1- Atg14L interaction in HEK293T cells assessed as increase in endogenous beclin 1 pull down at 30 uM by coimmunoprecipitation assay; format: cell-based; conditions: Homo sapiens
[24] = molecular target: Epidermal growth factor receptor (Homo sapiens) (UniProt P00533); test: Induction of endolysosomal trafficking of EGFR in human SK-BR-3 cells assessed as EGF-induced degradation of EGFR at 2 uM measured after 15 hrs post-EGF stimulation by western blot analysis relative to control; format: cell-based
Beclin-1 [25] = molecular target: T1, Beclin-1; test: Binding affinity to Beclin 1 coiled coil domain (unknown origin) by isothermal titration calorimetry assay
HEK293T [26] = test: Induction of Beclin 1- FLAG tagged UVRAG interaction in HEK293T cells assessed as endogenous beclin 1 pull down at 10 uM by coimmunoprecipitation assay; format: cell-based; conditions: Homo sapiens
SK-BR-3 [27] = test: Induction of apoptosis in human SK-BR-3 cells assessed as increase in cell death at 5 uM in presence of Z-VAD-FMK measured after 24 hrs by trypan blue exclusion assay; format: functional, cell-based
SK-BR-3 [28] = test: Induction of apoptosis in human SK-BR-3 cells assessed as late apoptotic cells at 1 uM incubated for 24 hrs by flow cytometry with Annexin V-FITC/propidium iodide staining based flow cytometry assay (Rvb= 2.2%); format: functional
SK-BR-3 [29] = test: Induction of apoptosis in human SK-BR-3 cells assessed as live cells at 1 uM measured after 24 hrs by annexin V-FITC/PI staining based flow cytometry analysis (Rvb= 90.6%); format: functional
SK-BR-3 [30] = test: Induction of apoptosis in human SK-BR-3 cells assessed as dead cells at 1 uM measured after 24 hrs by annexin V-FITC/PI staining based flow cytometry analysis (Rvb= 5.0%); format: functional
SK-BR-3 [31] = test: Induction of apoptosis in human SK-BR-3 cells assessed as early apoptotic cells at 1 uM measured after 24 hrs by annexin V-FITC/PI staining based flow cytometry analysis (Rvb= 2.2%); format: functional
SK-BR-3 [32] = test: Antiproliferative activity against human SK-BR-3 cells assessed as reduction in cell growth at 20 uM incubated for 5 days by trypan blue exclusion assay relative to control; format: functional; design: scale not given: the % may be the effect or the level left; conditions: time 5 day
SK-BR-3 [33] = test: Induction of apoptosis in human SK-BR-3 cells assessed as early apoptotic cells at 40 uM measured after 24 hrs by annexin V-FITC/PI staining based flow cytometry analysis (Rvb= 2.2%); format: functional
SK-BR-3 [34] = test: Induction of apoptosis in human SK-BR-3 cells assessed as dead cells at 20 uM measured after 24 hrs by annexin V-FITC/PI staining based flow cytometry analysis (Rvb= 5.0%); format: functional
SK-BR-3 [35] = test: Induction of apoptosis in human SK-BR-3 cells assessed as live cells at 20 uM measured after 24 hrs by annexin V-FITC/PI staining based flow cytometry analysis (Rvb= 90.6%); format: functional
SK-BR-3 [36] = test: Induction of apoptosis in human SK-BR-3 cells assessed as late apoptotic cells at 20 uM incubated for 24 hrs by flow cytometry with Annexin V-FITC/propidium iodide staining based flow cytometry assay (Rvb= 2.2%); format: functional
SK-BR-3 [37] = test: Induction of apoptosis in human SK-BR-3 cells assessed as dead cells at 40 uM measured after 24 hrs by annexin V-FITC/PI staining based flow cytometry analysis (Rvb= 5.0%); format: functional
SK-BR-3 [38] = test: Induction of apoptosis in human SK-BR-3 cells assessed as live cells at 40 uM measured after 24 hrs by annexin V-FITC/PI staining based flow cytometry analysis (Rvb= 90.6%); format: functional
SK-BR-3 [39] = test: Induction of apoptosis in human SK-BR-3 cells assessed as late apoptotic cells at 40 uM incubated for 24 hrs by flow cytometry with Annexin V-FITC/propidium iodide staining based flow cytometry assay (Rvb= 2.2%); format: functional
SK-BR-3 [40] = test: Induction of apoptosis in human SK-BR-3 cells assessed as early apoptotic cells at 20 uM measured after 24 hrs by annexin V-FITC/PI staining based flow cytometry analysis (Rvb= 2.2%); format: functional

T1 sequence (Q14457 whole entry): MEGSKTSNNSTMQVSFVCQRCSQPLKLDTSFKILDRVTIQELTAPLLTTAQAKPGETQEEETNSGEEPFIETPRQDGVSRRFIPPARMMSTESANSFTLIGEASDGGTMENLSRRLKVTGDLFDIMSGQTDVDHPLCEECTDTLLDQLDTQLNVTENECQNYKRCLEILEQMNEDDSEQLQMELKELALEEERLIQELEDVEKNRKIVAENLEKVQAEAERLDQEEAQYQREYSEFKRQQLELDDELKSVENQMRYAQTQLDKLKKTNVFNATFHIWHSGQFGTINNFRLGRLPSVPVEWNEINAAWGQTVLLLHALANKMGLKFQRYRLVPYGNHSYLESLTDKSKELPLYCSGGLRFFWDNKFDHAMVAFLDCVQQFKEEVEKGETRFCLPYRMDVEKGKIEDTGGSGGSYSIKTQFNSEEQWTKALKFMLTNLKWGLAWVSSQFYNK
Chain of Receptor tyrosine-protein kinase erbB-2 (Homo sapiens) (P04626 whole entry): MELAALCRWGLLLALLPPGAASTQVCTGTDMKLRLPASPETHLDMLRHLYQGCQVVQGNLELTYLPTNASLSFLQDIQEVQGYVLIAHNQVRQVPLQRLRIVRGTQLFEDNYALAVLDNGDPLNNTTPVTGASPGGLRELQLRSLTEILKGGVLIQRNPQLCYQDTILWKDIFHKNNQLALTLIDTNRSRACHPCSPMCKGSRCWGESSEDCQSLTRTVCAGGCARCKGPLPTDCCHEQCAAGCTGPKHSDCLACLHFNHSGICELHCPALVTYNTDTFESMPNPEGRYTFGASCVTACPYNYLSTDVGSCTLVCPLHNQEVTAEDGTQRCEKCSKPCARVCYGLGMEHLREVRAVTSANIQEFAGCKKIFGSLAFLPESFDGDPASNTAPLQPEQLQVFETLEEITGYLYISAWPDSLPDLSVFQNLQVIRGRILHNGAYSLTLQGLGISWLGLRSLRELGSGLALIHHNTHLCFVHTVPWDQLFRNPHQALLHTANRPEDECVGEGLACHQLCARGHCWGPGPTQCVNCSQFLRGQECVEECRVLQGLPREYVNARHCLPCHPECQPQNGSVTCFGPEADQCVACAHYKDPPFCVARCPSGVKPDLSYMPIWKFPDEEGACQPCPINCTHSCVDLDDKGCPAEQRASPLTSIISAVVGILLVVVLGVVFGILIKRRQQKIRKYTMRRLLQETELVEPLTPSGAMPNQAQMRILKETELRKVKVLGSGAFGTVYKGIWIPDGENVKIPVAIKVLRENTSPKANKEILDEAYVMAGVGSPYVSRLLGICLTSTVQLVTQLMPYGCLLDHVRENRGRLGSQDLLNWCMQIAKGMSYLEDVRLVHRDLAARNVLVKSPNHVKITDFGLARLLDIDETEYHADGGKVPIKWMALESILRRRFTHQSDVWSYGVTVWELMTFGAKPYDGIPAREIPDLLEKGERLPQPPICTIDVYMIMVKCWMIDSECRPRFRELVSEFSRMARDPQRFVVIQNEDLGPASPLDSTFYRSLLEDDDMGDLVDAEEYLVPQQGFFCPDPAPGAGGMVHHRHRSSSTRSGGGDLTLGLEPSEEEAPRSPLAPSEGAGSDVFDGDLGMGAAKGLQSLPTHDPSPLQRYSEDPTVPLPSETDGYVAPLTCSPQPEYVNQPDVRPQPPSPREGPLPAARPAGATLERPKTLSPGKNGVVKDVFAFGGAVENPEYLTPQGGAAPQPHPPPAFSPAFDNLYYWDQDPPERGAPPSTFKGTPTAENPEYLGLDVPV
Chain of Epidermal growth factor receptor (Homo sapiens) (P00533 whole entry, the tested form may be a part): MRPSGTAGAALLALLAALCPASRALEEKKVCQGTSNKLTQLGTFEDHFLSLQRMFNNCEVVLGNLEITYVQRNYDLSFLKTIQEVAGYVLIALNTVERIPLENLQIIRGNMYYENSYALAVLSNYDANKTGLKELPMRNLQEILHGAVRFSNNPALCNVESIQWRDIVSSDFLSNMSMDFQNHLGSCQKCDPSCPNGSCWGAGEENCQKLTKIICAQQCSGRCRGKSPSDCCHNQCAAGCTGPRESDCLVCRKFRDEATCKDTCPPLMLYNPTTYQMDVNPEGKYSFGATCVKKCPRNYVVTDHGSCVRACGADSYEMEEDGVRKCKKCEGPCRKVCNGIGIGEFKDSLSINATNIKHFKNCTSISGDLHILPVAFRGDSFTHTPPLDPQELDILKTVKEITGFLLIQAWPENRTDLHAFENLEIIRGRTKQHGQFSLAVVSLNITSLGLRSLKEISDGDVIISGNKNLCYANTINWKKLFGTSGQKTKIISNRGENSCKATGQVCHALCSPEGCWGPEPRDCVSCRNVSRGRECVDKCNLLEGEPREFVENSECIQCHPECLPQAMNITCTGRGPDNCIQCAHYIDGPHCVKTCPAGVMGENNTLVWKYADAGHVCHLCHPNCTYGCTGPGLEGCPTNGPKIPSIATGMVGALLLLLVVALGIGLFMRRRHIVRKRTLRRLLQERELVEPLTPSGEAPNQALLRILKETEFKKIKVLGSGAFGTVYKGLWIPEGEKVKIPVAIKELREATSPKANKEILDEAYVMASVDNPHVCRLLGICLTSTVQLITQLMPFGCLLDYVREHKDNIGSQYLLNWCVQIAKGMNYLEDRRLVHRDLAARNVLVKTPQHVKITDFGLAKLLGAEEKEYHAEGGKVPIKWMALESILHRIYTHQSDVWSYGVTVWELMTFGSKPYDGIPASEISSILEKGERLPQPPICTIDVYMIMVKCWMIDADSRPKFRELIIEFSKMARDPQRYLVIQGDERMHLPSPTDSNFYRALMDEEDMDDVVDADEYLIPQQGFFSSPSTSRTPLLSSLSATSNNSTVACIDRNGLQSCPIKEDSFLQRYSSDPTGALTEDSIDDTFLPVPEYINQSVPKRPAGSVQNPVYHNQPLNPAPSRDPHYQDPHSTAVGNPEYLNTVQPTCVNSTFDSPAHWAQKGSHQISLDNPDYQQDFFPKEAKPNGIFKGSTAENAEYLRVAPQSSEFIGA

For `CC[C@H](C)[C@@H]1NC(=O)[C@H](C(C)C)NC(=O)[C@H](CC(=O)O)NC(=O)[C@H](C(C)C)NC(=O)[C@H](CC(C)C)NC(=O)[C@H](NC(=O)[C@H](CC(N)=O)NC(=O)[C@H](Cc2ccccc2)NC(=O)[C@H](CC(C)C)NC(=O)[C@@H](NC(=O)[C@H](CCCNC(=N)N)NC(=O)[C@H](CCCNC(=N)N)NC(=O)[C@H](CCCNC(=N)N)NC(=O)[C@H](CCC(N)=O)NC(=O)[C@H](CCCNC(=N)N)NC(=O)[C@H](CCCNC(=N)N)NC(=O)[C@H](CCCCN)NC(=O)[C@H](CCCCN)NC(=O)[C@H](CCCNC(=N)N)NC(=O)CNC(=O)[C@H](Cc2ccc(O)cc2)NC(C)=O)C(C)C)CCCCCC/C=C/CCC[C@@H](C(=O)N[C@@H](CCCNC(=N)N)C(=O)N[C@@H](CCCCN)C(=O)N[C@H](C(N)=O)C(C)C)NC(=O)[C@H](CCCCN)NC1=O`, the Activity (SK-BR-3 [1]) was 81.1%, the Activity (HEK293T [2]) was “inactive” and the Activity (SK-BR-3 [3]) was “Dose-dependent effect”. It also gave an Activity [4] of 70%, an Activity [5] of 50% and an IC50 (SK-BR-3 [6]) of 7.12 µM. For the same compound, the Activity (SK-BR-3 [7]) was 13.3%, the Activity (HEK-293T [8]) was “inactive” and the Activity (SK-BR-3 [9]) was 1.2%. For the same compound, the Activity (HEK-293T [10]) was “Active”, the Activity (SK-BR-3 [11]) was “inactive” and the Activity (HEK-293T [12]) was “inactive”. The Activity (SK-BR-3 [13]) was “inactive”, the Activity (SK-BR-3 [14]) was 0.3% and the Activity (SK-BR-3 [15]) was 0.6%. For the same compound, the Activity (SK-BR-3 [16]) was “Active”, the Activity (SK-BR-3 [17]) was 69% and the Activity (SK-BR-3 [18]) was 2%. For the same compound, the Activity (SK-BR-3 [19]) was 29.5%, the Activity (HEK-293T [20]) was “Non-Toxic” and the inhibition (Beclin-1 [21]) was “Dose-dependent effect”. The Activity (HEK-293T [22]) was “Active”, the Activity (HEK293T [23]) was “Active” and the Activity [24] was 60%. The Kd (Beclin-1 [25]) was 0.33 µM and the Activity (HEK293T [26]) was “Active”.

`COc1cccc2c1C(=O)c1c(O)c3c(c(O)c1C2=O)C[C@@](O)(C(=O)CO)C[C@@H]3O[C@H]1C[C@H](N)[C@H](O)[C@H](C)O1` [DOXORUBICIN] was tested, and the Activity (SK-BR-3 [27]) was “inactive”, the Activity (SK-BR-3 [28]) was 18.7% and the Activity (SK-BR-3 [29]) was 48.1%. It also gave an Activity (SK-BR-3 [30]) of 16.7% and an Activity (SK-BR-3 [31]) of 16.5%.

`CC[C@H](C)[C@H](NC(=O)[C@H](CC(C)C)NC(=O)[C@H](CCCNC(=N)N)NC(=O)[C@H](CCCNC(=N)N)NC(=O)[C@H](CCCNC(=N)N)NC(=O)[C@H](CCCNC(=N)N)NC(=O)[C@H](CCC(N)=O)NC(=O)[C@H](CCCNC(=N)N)NC(=O)[C@H](CCCNC(=N)N)NC(=O)[C@H](CCCCN)NC(=O)[C@H](CCCCN)NC(=O)[C@H](CCCNC(=N)N)NC(=O)CNC(=O)[C@H](Cc1ccc(O)cc1)NC(C)=O)C(=O)N[C@@H](CO)C(=O)N[C@@H](CCC(=O)O)C(=O)N[C@@H](CC(C)C)C(=O)N[C@@H]1CCCCCC/C=C/CCC[C@@H](C(=O)N[C@@H](C)C(N)=O)NC(=O)[C@H](CCCNC(=N)N)NC(=O)[C@H](CCC(N)=O)NC(=O)[C@H](CCCCN)NC(=O)[C@H](CCC(=O)O)NC(=O)[C@H](CCCNC(=N)N)NC(=O)[C@H](CC(=O)O)NC1=O` gave an Activity (SK-BR-3 [1]) of 91%, an Activity (SK-BR-3 [32]) of 30% and an Activity (SK-BR-3 [7]) of 8.2%. The Activity (SK-BR-3 [9]) was 0.8%, the Activity (SK-BR-3 [33]) was 0.8% and the Activity (SK-BR-3 [14]) was 0.2%. The Activity (SK-BR-3 [34]) was 3.5%, the Activity (SK-BR-3 [35]) was 89% and the Activity (SK-BR-3 [15]) was 0.4%. It also gave an Activity (SK-BR-3 [17]) of 90.6%, an Activity (SK-BR-3 [18]) of 0.2% and an Activity (SK-BR-3 [36]) of 6.1%. The Activity (SK-BR-3 [37]) was 1.5%, the Activity (SK-BR-3 [38]) was 76.1% and the Activity (SK-BR-3 [19]) was 8.1%. For the same compound, the Activity (SK-BR-3 [39]) was 21.6% and the Activity (SK-BR-3 [40]) was 1.1%.
